Measurements published in article PMC7562955 (Nature Communications, 2020).
Where two headings read alike, the source gives them in different places.

Target: T1, TLR7 (Homo sapiens, UniProt Q9NYK1)
T1 sequence (Q9NYK1 27-1049): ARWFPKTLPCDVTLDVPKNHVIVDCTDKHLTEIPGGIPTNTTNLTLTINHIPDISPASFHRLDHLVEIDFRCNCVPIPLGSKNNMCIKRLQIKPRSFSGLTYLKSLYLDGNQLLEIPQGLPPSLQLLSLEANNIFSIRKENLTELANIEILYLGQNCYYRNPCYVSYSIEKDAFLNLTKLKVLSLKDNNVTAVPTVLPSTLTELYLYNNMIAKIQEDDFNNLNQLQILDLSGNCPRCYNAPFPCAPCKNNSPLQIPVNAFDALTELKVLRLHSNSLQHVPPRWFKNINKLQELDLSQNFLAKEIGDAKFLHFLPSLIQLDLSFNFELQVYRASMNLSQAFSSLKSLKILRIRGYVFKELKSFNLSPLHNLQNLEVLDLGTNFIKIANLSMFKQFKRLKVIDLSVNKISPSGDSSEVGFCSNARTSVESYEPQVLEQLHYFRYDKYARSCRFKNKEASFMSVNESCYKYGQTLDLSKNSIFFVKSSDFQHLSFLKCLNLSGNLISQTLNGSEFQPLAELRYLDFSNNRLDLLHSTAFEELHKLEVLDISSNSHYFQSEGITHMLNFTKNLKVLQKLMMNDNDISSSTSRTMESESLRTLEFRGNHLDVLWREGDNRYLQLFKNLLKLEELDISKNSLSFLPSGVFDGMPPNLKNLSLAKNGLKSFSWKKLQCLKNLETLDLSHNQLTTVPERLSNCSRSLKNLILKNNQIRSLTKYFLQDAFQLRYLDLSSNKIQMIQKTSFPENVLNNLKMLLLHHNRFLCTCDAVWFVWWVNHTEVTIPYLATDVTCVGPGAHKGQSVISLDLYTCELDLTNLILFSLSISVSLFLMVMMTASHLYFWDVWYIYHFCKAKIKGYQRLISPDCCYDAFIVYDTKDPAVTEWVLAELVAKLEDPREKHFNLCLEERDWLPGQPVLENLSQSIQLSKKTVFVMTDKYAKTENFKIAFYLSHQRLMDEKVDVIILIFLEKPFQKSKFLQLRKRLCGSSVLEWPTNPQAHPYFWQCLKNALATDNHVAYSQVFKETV
Assay: Human TLR7 reporter gene inhibitory activity assay (NF-κB/SEAP HEK293)
Assay type: cell-based
Design: host or cells: HEK293 (TLR7/NF-κB/SEAPorter)
Settings: for IC50 / human TLR7 activity, reporter signal: R848 200 nM
Protocol: Compounds were dissolved in dimethyl sulfoxide. Before stimulation with compound, Human TLR7 reporter cell line (TLR7/NF-κB/SEAPorter^TM HEK293 cell, Novus Biological, USA), human TLR8 reporter cell line (TLR8/NF-κB/SEAPorter^TM HEK293 cell, Novus Biological), and human TLR9 reporter cell line (TLR9/NF-κB/SEAPorter^TM HEK293 cell, Novus Biological) were seeded in 96-well microtiter plate (AGC techno glass, Japan) at 5 × 10^4 cells/well in DMEM (GIBCO, United Kingdam) with 10 % fetal bovine serum (GIBCO), and 10 ug/ml Blastcidin S HCl (GIBCO) and incubated at 37 °C in 5% CO2. The plates were incubated over-night and then stimulated with various concentrations of compound. […] After 30 min, R848 (human TLR7/8 ligand, synthesized at Sumitomo Dainippon Pharma, Japan) or CpG2006 (human TLR9 ligand, Hokkaido System Science Co., Ltd., Japan) added to each well, wherein each final concentration were adjusted to 200 nM R848 (human TLR7), 30 μM R848 (human TLR8), or 500 nM CpG2006 (human TLR9). The plates were then incubated an additional 20 ± 1 h at 37 °C in 5% CO2 and then the secreted embryonic alkaline phosphatase (SEAP) activity was measured as activation of human TLR7, 8, and 9. The SEAP activity was evaluated as follows: pNPP (Invitrogen, USA) was added to the incubated sample (50 μl/well); after 15 min, 4 M sodium hydroxide solution (nacalai tesque, Japan) was added thereto (50 μl/well) to quench the reaction; and the absorbance of each sample was measured at 405 nm with microplate reader SpectraMax M4 (Molecular Devices, USA).

[1] = read-out: TLR7 inhibitory activity IC50

| SMILES | selectivity for TLR7 over TLR8 and TLR9 | IC50 [1] | human TLR7 activity, reporter signal (compound 0.0001 nM (as headed)) | human TLR7 activity, reporter signal (compound 0.001 nM (as headed)) | human TLR7 activity, reporter signal (compound 0.003 nM (as headed)) | human TLR7 activity, reporter signal (compound 0.01 nM (as headed)) | human TLR7 activity, reporter signal (compound 0.03 nM (as headed)) | human TLR7 activity, reporter signal (compound 0.1 nM (as headed)) | human TLR7 activity, reporter signal (compound 0.3 nM (as headed)) | human TLR7 activity, reporter signal (compound 1 nM (as headed)) | human TLR7 activity, reporter signal (compound 3 nM (as headed)) | human TLR7 activity, reporter signal (compound 10 nM (as headed)) | human TLR7 activity, reporter signal (compound 30 nM (as headed)) | human TLR7 activity, reporter signal (compound 100 nM (as headed)) | IC50 (read-out: TLR7 inhibitory potency IC50) |
| --- | --- | --- | --- | --- | --- | --- | --- | --- | --- | --- | --- | --- | --- | --- | --- |
| CCOc1nc(N)c2nc(-c3cncc(F)c3)n(Cc3ccc(CN4C[C@@H]5C[C@H]4CN5C)cc3)c2n1 [Cpd-6] | high TLR7 selectivity | 25 nM | 1.983 | 1.907 | 1.643 | 1.354 | 0.8446 | 0.3393 | 0.1771 | 0.006275 | -0.01137 | -0.02343 | -0.03198 | -0.04843 |  |
| CCN(CCO)CCCC(C)Nc1ccnc2cc(Cl)ccc12 (stereo not drawn) [HCQ, hydroxychloroquine, reference compound] |  |  | 1.977 |  |  | 1.7427 | 1.684 | 1.7194 | 1.681 | 1.5856 | 1.338 | 1.109 | 0.2449 | 0.0133 |  |
| CCCCOc1nc(N)c2nc(-c3cccnc3)n(Cc3ccccc3)c2n1 [Cpd-5] |  |  | 2.067 | 1.898 | 1.879 | 1.8207 | 1.853 | 1.8291 | 1.986 | 1.7924 | 1.5762 | 1.162 | 0.6856 | 0.7605 | 5000 nM |
| CCOc1nc(C)c2nc(-c3cncc(F)c3)n(Cc3ccc(CN4C[C@@H]5C[C@H]4CN5C)cc3)c2n1 [Cpd-7] | high TLR7 selectivity | 15 nM | 1.983 | 1.718 | 1.528 | 1.179 | 0.5917 | 0.1271 | 0.01692 | -0.02107 | -0.03277 | -0.02908 | -0.03703 | -0.01692 |  |
